{
  "source": "patent US8871679B2",
  "about": "“Fungicidal mixtures comprising substituted 1-methylpyrazol-4-ylcarboxanilides” (BASF SE, priority 2008, dated 2014)",
  "assay_type_in_all_cases": "cell-based",
  "key": {"[1]": {"system": "Alternaria solani", "assay": "Microtiter test, activity against Alternaria solani (Use Example 4)", "settings": "7 days"}, "[2]": {"system": "Septoria tritici", "assay": "Microtiter test, activity against leaf blotch on wheat caused by Septoria tritici (Use Example 3)", "settings": "for inhibition of growth at 16 ppm / inhibition of growth at 63 ppm / inhibition of growth at 4 ppm: Zymoseptoria tritici, 168 h, read-out: Observed efficacy"}, "[3]": {"system": "Pyricularia oryzae"}, "[4]": {"system": "Colletotrichum truncatum", "assay": "Microtiter test, activity against Colletotrichum truncatum (Use Example 5)", "settings": "compound alone, 7 days"}, "[5]": {"system": "Leptosphaerium nodorum", "assay": "Microtiter test, activity against Leptospharium nodorum (Use Example 6)", "settings": "compound alone, 7 days"}, "[6]": {"system": "Fusarium culmorum", "assay": "Microtiter test, activity against Fusarium culmorum (Use Example 7)", "settings": "compound alone, 7 days"}, "[7]": {"settings": "Alternaria solani, 168 h, 63 ppm, compound alone, read-out: Observed efficacy"}, "[8]": {"settings": "0.016 ppm, compound alone, day 7"}, "[9]": {"settings": "0.25 ppm, compound alone, day 7"}, "[10]": {"settings": "Alternaria solani, 168 h, read-out: Observed efficacy"}},
  "note": "Read-outs that look alike come from different tables or passages of the source.",
  "data": [
    {"compound": "Cc1c(COC(=O)[C@@H]2[C@H](/C=C(\\Cl)C(F)(F)F)C2(C)C)cccc1-c1ccccc1", "note": "(racemic) [Bifenthrin, bifenthrin]", "values": [
      {"measurement": "inhibition of growth at 63 ppm", "setting": "[1]; [7]", "value": 1, "unit": "%"}
    ]},
    {"compound": "CC1(C)[C@H](C(=O)O[C@H](C#N)c2cccc(Oc3ccccc3)c2)[C@@H]1/C=C(\\Cl)C(F)(F)F", "note": "(racemic) [lambda-Cyalothrin, lambda-cyhalothrin]", "values": [
      {"measurement": "inhibition of growth at 16 ppm", "setting": "[2]; 16 ppm, compound alone, day 7", "value": 10, "unit": "%"},
      {"measurement": "inhibition of growth at 63 ppm", "setting": "[2]; 63 ppm, compound alone, day 7", "value": 29, "unit": "%"}
    ]},
    {"compound": "Cn1cc(C(=O)Nc2ccccc2C2CC2C2CC2)c(C(F)F)n1", "note": "(single isomer, unassigned) [Sedaxane (trans diastereoisomer), N-(trans-2-bicycloprop-2-ylphenyl)-3-difluoromethyl-1-methyl-1H-pyrazole-4-carboxamide]", "values": [
      {"measurement": "Observed efficacy", "setting": "[3]; [8]", "value": 1, "unit": "%"},
      {"measurement": "Observed efficacy", "setting": "[2]; [9]", "value": 57, "unit": "%"},
      {"measurement": "Observed efficacy", "setting": "[1]; 0.063 ppm, compound alone", "value": 0, "unit": "%"},
      {"measurement": "Observed efficacy", "setting": "[1]; 0.25 ppm, compound alone", "value": 20, "unit": "%"},
      {"measurement": "Observed efficacy", "setting": "[4]; 0.25 ppm", "value": 3, "unit": "%"},
      {"measurement": "Observed efficacy", "setting": "[5]; 0.25 ppm", "value": 17, "unit": "%"},
      {"measurement": "Observed efficacy", "setting": "[6]; 0.25 ppm", "value": 2, "unit": "%"}
    ]},
    {"compound": "COP(=O)(NC(C)=O)SC", "note": "(centres unmarked) [Acephate, acephate]", "values": [
      {"measurement": "inhibition of growth at 4 ppm", "setting": "[2]", "value": 2, "unit": "%"},
      {"measurement": "inhibition of growth at 1 ppm", "setting": "[1]; [10]", "value": 3, "unit": "%"}
    ]},
    {"compound": "CNC(=O)O/N=C/C(C)(C)SC", "note": "[Aldicarb, aldicarb]", "values": [
      {"measurement": "inhibition of growth at 16 ppm", "setting": "[2]", "value": 7, "unit": "%"}
    ]},
    {"compound": "Cn1cc(C(=O)Nc2ccc(F)cc2-c2ccc(Cl)c(Cl)c2)c(C(F)F)n1", "note": "[Bixafen, bixafen]", "values": [
      {"measurement": "Observed efficacy", "setting": "[3]; 0.063 ppm, compound alone, day 7", "value": 6, "unit": "%"},
      {"measurement": "Observed efficacy", "setting": "[3]; [9]", "value": 6, "unit": "%"},
      {"measurement": "Observed efficacy", "setting": "[2]", "value": 48, "unit": "%"},
      {"measurement": "Observed efficacy", "setting": "[1]", "value": 0, "unit": "%"},
      {"measurement": "Observed efficacy", "setting": "[4]; 0.25 ppm", "value": 6, "unit": "%"},
      {"measurement": "Observed efficacy", "setting": "[5]; 0.25 ppm", "value": 16, "unit": "%"}
    ]},
    {"compound": "CCOCn1c(-c2ccc(Cl)cc2)c(C#N)c(Br)c1C(F)(F)F", "note": "[Chlorfenapyr, chlorfenapyr]", "values": [
      {"measurement": "Observed efficacy", "setting": "[3]; 4 ppm, compound alone, day 7", "value": 17, "unit": "%"},
      {"measurement": "Observed efficacy", "setting": "[3]; 63 ppm, compound alone, day 7", "value": 38, "unit": "%"},
      {"measurement": "inhibition of growth at 16 ppm", "setting": "[2]; 16 ppm, compound alone, day 7", "value": 8, "unit": "%"},
      {"measurement": "Observed efficacy", "setting": "[5]; 63 ppm", "value": 8, "unit": "%"}
    ]},
    {"compound": "CC1(C)[C@H](C(=O)O[C@H](C#N)c2cccc(Oc3ccccc3)c2)[C@@H]1C=C(Br)Br", "note": "[Deltamethrin, deltamethrin]", "values": [
      {"measurement": "Observed efficacy", "setting": "[3]; 4 ppm, compound alone, day 7", "value": 0, "unit": "%"},
      {"measurement": "inhibition of growth at 16 ppm", "setting": "[2]", "value": 0, "unit": "%"},
      {"measurement": "inhibition of growth at 63 ppm", "setting": "[2]", "value": 3, "unit": "%"},
      {"measurement": "inhibition of growth at 1 ppm", "setting": "[1]; [10]", "value": 0, "unit": "%"},
      {"measurement": "inhibition of growth at 4 ppm", "setting": "[1]; [10]", "value": 5, "unit": "%"},
      {"measurement": "inhibition of growth at 16 ppm", "setting": "[1]; [10]", "value": 0, "unit": "%"}
    ]},
    {"compound": "CNC(=O)CSP(=S)(OC)OC", "note": "[Dimethoate, dimethoate]", "values": [
      {"measurement": "inhibition of growth at 4 ppm", "setting": "[2]", "value": 2, "unit": "%"}
    ]},
    {"compound": "O=S1OCC2C(CO1)C1(Cl)C(Cl)=C(Cl)C2(Cl)C1(Cl)Cl", "note": "(centres unmarked) [Endosulfan, endosulfan]", "values": [
      {"measurement": "Observed efficacy", "setting": "[3]; 16 ppm, compound alone, day 7", "value": 22, "unit": "%"},
      {"measurement": "Observed efficacy", "setting": "[3]; 63 ppm, compound alone, day 7", "value": 73, "unit": "%"},
      {"measurement": "inhibition of growth at 16 ppm", "setting": "[2]", "value": 3, "unit": "%"},
      {"measurement": "inhibition of growth at 63 ppm", "setting": "[2]", "value": 26, "unit": "%"},
      {"measurement": "inhibition of growth at 16 ppm", "setting": "[1]; [10]", "value": 13, "unit": "%"},
      {"measurement": "Observed efficacy", "setting": "[4]; 63 ppm", "value": 8, "unit": "%"},
      {"measurement": "Observed efficacy", "setting": "[5]; 63 ppm", "value": 5, "unit": "%"}
    ]},
    {"compound": "CC(C)([CH2][Sn]([CH2]C(C)(C)c1ccccc1)([CH2]C(C)(C)c1ccccc1)[O][Sn]([CH2]C(C)(C)c1ccccc1)([CH2]C(C)(C)c1ccccc1)[CH2]C(C)(C)c1ccccc1)c1ccccc1", "note": "[Fenbutadin-oxyd, fenbutatin oxide]", "values": [
      {"measurement": "Observed efficacy", "setting": "[3]", "value": 39, "unit": "%"}
    ]},
    {"compound": "Cc1cc(C(F)(C(F)(F)F)C(F)(F)F)ccc1NC(=O)c1cccc(I)c1C(=O)NC(C)(C)CS(C)(=O)=O", "note": "[Flubendiamid, flubendiamide]", "values": [
      {"measurement": "Observed efficacy", "setting": "[3]; 4 ppm, compound alone, day 7", "value": 0, "unit": "%"},
      {"measurement": "Observed efficacy", "setting": "[3]; 63 ppm, compound alone, day 7", "value": 15, "unit": "%"},
      {"measurement": "inhibition of growth at 63 ppm", "setting": "[2]; 63 ppm, compound alone, day 7", "value": 37, "unit": "%"},
      {"measurement": "inhibition of growth at 63 ppm", "setting": "[1]; [7]", "value": 0, "unit": "%"},
      {"measurement": "Observed efficacy", "setting": "[4]; 63 ppm", "value": 0, "unit": "%"},
      {"measurement": "Observed efficacy", "setting": "[5]; 63 ppm", "value": 22, "unit": "%"},
      {"measurement": "Observed efficacy", "setting": "[6]; 63 ppm", "value": 3, "unit": "%"}
    ]},
    {"compound": "CC1(C)CNC(=NN=C(/C=C/c2ccc(C(F)(F)F)cc2)/C=C/c2ccc(C(F)(F)F)cc2)NC1", "note": "[Hydramethylnon, hydramethylnon]", "values": [
      {"measurement": "Observed efficacy", "setting": "[3]; 4 ppm, compound alone, day 7", "value": 5, "unit": "%"},
      {"measurement": "inhibition of growth at 16 ppm", "setting": "[2]", "value": 0, "unit": "%"},
      {"measurement": "inhibition of growth at 63 ppm", "setting": "[2]", "value": 4, "unit": "%"},
      {"measurement": "inhibition of growth at 1 ppm", "setting": "[1]; [10]", "value": 7, "unit": "%"}
    ]},
    {"compound": "Cn1cc(C(=O)Nc2ccccc2-c2cc(F)c(F)c(F)c2)c(C(F)F)n1", "note": "[Ia, N-(3′,4′,5′-trifluorobiphenyl-2-yl)-3-difluoro-methyl-1-methyl-1H-pyrazole-4-carboxamide]", "values": [
      {"measurement": "Observed efficacy", "setting": "[3]; 0.004 ppm, compound alone, day 7", "value": 3, "unit": "%"},
      {"measurement": "Observed efficacy", "setting": "[2]", "value": 29, "unit": "%"},
      {"measurement": "Observed efficacy", "setting": "[1]", "value": 29, "unit": "%"}
    ]},
    {"compound": "COC(=O)N(C(=O)N1CO[C@@]2(C(=O)OC)Cc3cc(Cl)ccc3C2=N1)c1ccc(OC(F)(F)F)cc1", "note": "[Indoxacarb, indoxacarb]", "values": [
      {"measurement": "Observed efficacy", "setting": "[3]; 1 ppm, compound alone, day 7", "value": 0, "unit": "%"},
      {"measurement": "Observed efficacy", "setting": "[2]; 16 ppm, compound alone, day 7", "value": 9, "unit": "%"},
      {"measurement": "Observed efficacy", "setting": "[2]; 63 ppm, compound alone, day 7", "value": 19, "unit": "%"},
      {"measurement": "Observed efficacy", "setting": "[1]; 16 ppm, compound alone", "value": 0, "unit": "%"}
    ]},
    {"compound": "CC(C)C1C2CCC1c1c(NC(=O)c3cn(C)nc3C(F)F)cccc12", "note": "(centres unmarked) [Isopyrazam, isopyrazam]", "values": [
      {"measurement": "Observed efficacy", "setting": "[3]; [8]", "value": 15, "unit": "%"},
      {"measurement": "Observed efficacy", "setting": "[2]", "value": 58, "unit": "%"},
      {"measurement": "Observed efficacy", "setting": "[1]", "value": 2, "unit": "%"},
      {"measurement": "Observed efficacy", "setting": "[4]; 0.25 ppm", "value": 14, "unit": "%"},
      {"measurement": "Observed efficacy", "setting": "[5]; 0.25 ppm", "value": 13, "unit": "%"}
    ]},
    {"compound": "COP(N)(=O)SC", "note": "(centres unmarked) [Methamidophos, methamidophos]", "values": [
      {"measurement": "inhibition of growth at 4 ppm", "setting": "[2]", "value": 5, "unit": "%"},
      {"measurement": "inhibition of growth at 1 ppm", "setting": "[1]; [10]", "value": 8, "unit": "%"},
      {"measurement": "inhibition of growth at 63 ppm", "setting": "[1]; [10]", "value": 0, "unit": "%"}
    ]},
    {"compound": "Cc1nn(C)c(F)c1C(=O)Nc1ccccc1C(C)CC(C)C", "note": "(centres unmarked) [Penflufen, N-[2-(1,3-dimethylbutyl)-phenyl]-1,3-dimethyl-5-fluor-1H-pyrazole-4-carboxamide]", "values": [
      {"measurement": "Observed efficacy", "setting": "[3]; [9]", "value": 5, "unit": "%"},
      {"measurement": "Observed efficacy", "setting": "[2]", "value": 44, "unit": "%"},
      {"measurement": "Observed efficacy", "setting": "[1]", "value": 0, "unit": "%"}
    ]},
    {"compound": "CCOP(=S)(OCC)SCSC(C)(C)C", "note": "[Terbufos, terbufos]", "values": [
      {"measurement": "inhibition of growth at 16 ppm", "setting": "[2]", "value": 14, "unit": "%"}
    ]},
    {"compound": "CC1(C)C(C=C(Cl)Cl)C1C(=O)OC(C#N)c1cccc(Oc2ccccc2)c1", "note": "(stereo not drawn) [alpha-Cypermethrin, alpha-cypermethrin]", "values": [
      {"measurement": "Observed efficacy", "setting": "[3]; 63 ppm, compound alone, day 7", "value": 41, "unit": "%"},
      {"measurement": "inhibition of growth at 63 ppm", "setting": "[1]; [10]", "value": 0, "unit": "%"}
    ]},
    {"compound": "abamectin", "values": [
      {"measurement": "Observed efficacy", "setting": "[1]; 1 ppm, compound alone", "value": 2, "unit": "%"}
    ]}
  ]
}
